22 compounds from PubChem BioAssay AID192 (DTP/NCI, 2004) can be followed below.

The experiment deals with BDF1 mice, B16 melanoma ip, median survival T/C. Kind of experiment: NCI In Vivo Anticancer Drug Screen. Data for tumor model B16 Melanoma (intraperitoneal) in B6D2F1 (BDF1) mice. The settings on record: endpoint: median survival time, higher = longer survival. Summed up: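 Values are ratios of treated (T) to vehicle-control (C) measurements of survival or tumor size in tumor-bearing mice.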

Setting [1] is: dose: 100.0 mg/kg/injection, schedule: Q01DX009 (ip), vehicle: saline with Tween-80.
The mark [2] stands for this setting: dose: 25.0 mg/kg/injection, schedule: Q01DX009 (ip), vehicle: saline.
The mark [3] stands for this setting: dose: 50.0 mg/kg/injection, schedule: Q01DX009 (ip), vehicle: saline.
The mark [4] stands for this setting: dose: 100.0 mg/kg/injection, schedule: Q01DX009 (ip), vehicle: saline.
Setting [5] is: dose: 100.0 mg/kg/injection, schedule: Q01DX009 (ip), vehicle: Klucel (hydroxypropylcellulose) (HPC).
Where [6] appears, read: dose: 200.0 mg/kg/injection, schedule: Q01DX009 (ip), vehicle: Klucel (hydroxypropylcellulose) (HPC).
Setting [7] is: dose: 400.0 mg/kg/injection, schedule: Q01DX009 (ip), vehicle: Klucel (hydroxypropylcellulose) (HPC).
Setting [8] is: dose: 12.5 mg/kg/injection, schedule: Q01DX009 (ip), vehicle: saline.
Where [9] appears, read: dose: 0.78 mg/kg/injection, schedule: Q01DX009 (ip), vehicle: saline.
Where [10] appears, read: dose: 1.56 mg/kg/injection, schedule: Q01DX009 (ip), vehicle: saline.
[11] abbreviates: dose: 200.0 mg/kg/injection, schedule: Q01DX009 (ip), vehicle: saline with Tween-80.
The mark [12] stands for this setting: dose: 100.0 mg/kg/injection, schedule: Q04DX003 (ip), vehicle: saline with Tween-80.
The mark [13] stands for this setting: dose: 200.0 mg/kg/injection, schedule: Q04DX003 (ip), vehicle: saline with Tween-80.
Setting [14] is: dose: 50.0 mg/kg/injection, schedule: Q01DX009 (ip), vehicle: Klucel (hydroxypropylcellulose) (HPC).

The structures appear in SMILES notation. Several values for one entry are separate records, joined by “and”; a condition that tells them apart may be missing. Equal values may be shown once. Toxic doses and inconclusive results are not listed.

On to `CCOC(=O)C(C)Oc1ccc(Cl)cc1` (stereo not given), for which the T/C (dose: 50.0 mg/kg/injection, schedule: Q01DX009 (ip), vehicle: other) was 111 % of control; the T/C (dose: 100.0 mg/kg/injection, schedule: Q01DX009 (ip), vehicle: other) was 104 % of control; the T/C (dose: 200.0 mg/kg/injection, schedule: Q01DX009 (ip), vehicle: other) was 106 % of control; the T/C (dose: 400.0 mg/kg/injection, schedule: Q01DX009 (ip), vehicle: other) is 102 % of control.
In the case of `CCOc1ccc(NC(=O)Nc2ccccc2)cc1`, the T/C under setting [1] is 86 % of control.
Consider `CCN1Cc2ccc(O)cc2C1`, for which the T/C under setting [2] was 98 % of control, the T/C under setting [3] is 100 % of control and the T/C under setting [4] was 97 % of control.
With `Cc1cccc(NC(=O)c2ccccc2C(=O)O)c1C`, the T/C is 94 % of control under setting [5], 94 % of control under setting [6] and 97 % of control under setting [7].
On to `CC(N)Cc1ccc(O)cc1` (stereo not given), for which the T/C under setting [8] is 102 % of control; the T/C under setting [2] is 110 % of control; the T/C under setting [3] was 100 % of control; the T/C under setting [4] is 105 % of control; the T/C (dose: 200.0 mg/kg/injection, schedule: Q01DX009 (ip), vehicle: saline) is 100 % of control.
With `COc1ccc(OC)c(/C=C/C(=O)c2ccc(Cl)cc2)c1`, the T/C by setting is: under setting [5], 92 % of control; (dose: 100.0 mg/kg/injection, schedule: Q04DX003 (ip), vehicle: Klucel (hydroxypropylcellulose) (HPC)) 103 % of control; under setting [6], 92 % of control; (dose: 200.0 mg/kg/injection, schedule: Q04DX003 (ip), vehicle: Klucel (hydroxypropylcellulose) (HPC)) 109 % of control; under setting [7], 89 % of control; (dose: 400.0 mg/kg/injection, schedule: Q04DX003 (ip), vehicle: Klucel (hydroxypropylcellulose) (HPC)) 103 % of control.
As for `CCc1ccc2c(c1)N(CC(C)CN(C)C)c1ccccc1S2` (stereo not given), the T/C was 105 % of control under setting [9]; 87 % of control and 111 % of control under setting [10]; 98 % of control and 108 % of control (dose: 3.12 mg/kg/injection, schedule: Q01DX009 (ip), vehicle: saline).
As for `CC(=O)Oc1cccc(C)c1`, under setting [11], the T/C was 106 % of control.
`CNC(=O)OCC(Cl)(Cl)Cl`: the T/C is 102 % of control (dose: 75.0 mg/kg/injection, schedule: Q01DX009 (ip), vehicle: Klucel (hydroxypropylcellulose) (HPC)); 114 % of control (dose: 150.0 mg/kg/injection, schedule: Q01DX009 (ip), vehicle: Klucel (hydroxypropylcellulose) (HPC)); 102 % of control (dose: 300.0 mg/kg/injection, schedule: Q01DX009 (ip), vehicle: Klucel (hydroxypropylcellulose) (HPC)).
Regarding `C=CCn1c(=S)[nH]c2ccccc2c1=O`, the T/C by setting is: (dose: 50.0 mg/kg/injection, schedule: Q01DX009 (ip), vehicle: saline with Tween-80) 96 % of control; under setting [1], 96 % of control; under setting [12], 105 % of control; under setting [11], 93 % of control; under setting [13], 94 % of control; (dose: 400.0 mg/kg/injection, schedule: Q04DX003 (ip), vehicle: saline with Tween-80) 92 % of control.
For `C[As](C)Sc1ncccn1`, the T/C was 100 % of control (dose: 3.13 mg/kg/injection, schedule: Q01DX009 (ip), vehicle: Klucel (hydroxypropylcellulose) (HPC)) and 100 % of control (dose: 6.25 mg/kg/injection, schedule: Q01DX009 (ip), vehicle: Klucel (hydroxypropylcellulose) (HPC)).
Regarding `O=C1C(=O)c2ccccc2C(O)=C1CC=C(Cl)Cl`, the T/C by setting is: (dose: 6.2 mg/kg/injection, schedule: Q01DX009 (ip), vehicle: water) 93 % of control; under setting [8], 100 % of control; (dose: 12.5 mg/kg/injection, schedule: Q01DX009 (ip), vehicle: water) 93 % of control; under setting [2], 102 % of control; (dose: 25.0 mg/kg/injection, schedule: Q01DX009 (ip), vehicle: water) 100 % of control; (dose: 25.0 mg/kg/injection, schedule: Q01DX009 (oral), vehicle: water) 103 % of control and 106 % of control. Moreover, the T/C was 100 % of control under setting [3]; 100 % of control (dose: 50.0 mg/kg/injection, schedule: Q01DX009 (ip), vehicle: water); 105 % of control (dose: 50.0 mg/kg/injection, schedule: Q01DX009 (oral), vehicle: saline); 106 % of control (dose: 50.0 mg/kg/injection, schedule: Q01DX009 (oral), vehicle: water); 110 % of control (dose: 75.0 mg/kg/injection, schedule: Q01DX009 (oral), vehicle: water); 116 % of control (dose: 100.0 mg/kg/injection, schedule: Q01DX009 (oral), vehicle: saline). The T/C reads like this: (dose: 100.0 mg/kg/injection, schedule: Q01DX009 (oral), vehicle: water) 106 % of control and 113 % of control; (dose: 200.0 mg/kg/injection, schedule: Q01DX009 (oral), vehicle: water) 106 % of control.
`C[C@]12CC[C@@H]3c4ccc(O)cc4CC[C@H]3[C@@H]1C[C@@H](O)[C@@H]2O`: the T/C under setting [14] is 102 % of control, the T/C under setting [5] was 100 % of control and the T/C under setting [6] was 90 % of control.
Regarding `C=CCN(C)N=Nc1ccc(C(N)=O)cc1`, the T/C was 105 % of control (dose: 25.0 mg/kg/injection, schedule: Q01DX009 (ip), vehicle: Klucel (hydroxypropylcellulose) (HPC)); 110 % of control under setting [14]; 107 % of control under setting [5].
As to `COc1cc2c(c(OC)c1OC)-c1ccc(OC)c(=O)cc1[C@@H](NC(=O)c1ccccc1)CC2`, the T/C is 173 % of control and 190 % of control (dose: 1.0 mg/kg/injection, schedule: Q01DX009 (ip), vehicle: Klucel (hydroxypropylcellulose) (HPC)); 156 % of control and 161 % of control (dose: 2.0 mg/kg/injection, schedule: Q01DX009 (ip), vehicle: Klucel (hydroxypropylcellulose) (HPC)).
Regarding `CC(=O)OC1CCC2(C)C(CC(=O)C(C)C23CCC2(C=COC2)O3)C1(C)C` (stereo not given), the T/C is, setting by setting: (dose: 6.0 mg/kg/injection, schedule: Q01DX009 (ip), vehicle: Klucel (hydroxypropylcellulose) (HPC)) 101 % of control; (dose: 12.0 mg/kg/injection, schedule: Q01DX009 (ip), vehicle: Klucel (hydroxypropylcellulose) (HPC)) 99 % of control; (dose: 24.0 mg/kg/injection, schedule: Q01DX009 (ip), vehicle: Klucel (hydroxypropylcellulose) (HPC)) 95 % of control; (dose: 48.0 mg/kg/injection, schedule: Q01DX009 (ip), vehicle: Klucel (hydroxypropylcellulose) (HPC)) 99 % of control.
As for `N#Cc1ccc(/C=C/C(=O)c2ccccc2)cc1`, the T/C is 101 % of control under setting [5] and 101 % of control under setting [6].
Consider `O=C(CCCN1CCC2(CC1)C(=O)NCN2c1ccccc1)c1ccc(F)cc1`, for which the T/C is, setting by setting: (dose: 0.39 mg/kg/injection, schedule: Q01DX009 (ip), vehicle: saline) 92 % of control; under setting [9], 89 % of control; under setting [10], 94 % of control.
As for `O=c1c2cccc3cccc(c32)c2nc3ccccc3n12`, the T/C was 102 % of control (dose: 2.5 mg/kg/injection, schedule: Q01DX009 (ip), vehicle: saline with Tween-80) and 114 % of control (dose: 5.0 mg/kg/injection, schedule: Q01DX009 (ip), vehicle: saline with Tween-80).
For the compound `CC(=O)[O][Pb]([CH2]C(C)C)([CH2]C(C)C)[CH2]C(C)C`, the T/C was 94 % of control (dose: 0.09 mg/kg/injection, schedule: Q01DX009 (ip), vehicle: Klucel (hydroxypropylcellulose) (HPC)); 98 % of control (dose: 0.19 mg/kg/injection, schedule: Q01DX009 (ip), vehicle: Klucel (hydroxypropylcellulose) (HPC)); 93 % of control (dose: 0.38 mg/kg/injection, schedule: Q01DX009 (ip), vehicle: Klucel (hydroxypropylcellulose) (HPC)); 88 % of control and 98 % of control (dose: 0.75 mg/kg/injection, schedule: Q01DX009 (ip), vehicle: Klucel (hydroxypropylcellulose) (HPC)).
As to `Cc1[nH]c(=O)[nH]c(=O)c1[N+](=O)[O-]`, the T/C under setting [5] was 100 % of control, the T/C under setting [6] is 95 % of control and the T/C under setting [7] is 100 % of control.
For the compound `O=C(O)C1(Cl)CC2C=CC1C2` (stereo not given), the T/C was 105 % of control (dose: 50.0 mg/kg/injection, schedule: Q04DX003 (ip), vehicle: saline with Tween-80); 97 % of control under setting [12]; 88 % of control under setting [13].
